The text below walks through data of patent US7160874B2, “Phenylalanine derivatives” (Ajinomoto Co., Inc., priority 1999, dated 2007).

For one test, the target named is T1, integrin α4β1 (Homo sapiens, UniProt P05556+P13612).
T1 construct: cell strain Jurkat (ATCC TIB-152) of human T cells, known to express integrin α4β1; host or cells: Jurkat (human T cell line)
The experiment in a line: VCAM antagonist activity (VCAM-1/α4β1 binding assay). The note with it: Jurkat cells binding to VCAM-1; read-out: VCAM antagonistic activity (IC50) α4β1. Format: cell-based. As for the experimental part: (Test Example) VCAM Antagonist Activity (VCAM-1/α4β1 Binding Assay):
The capacity of a test substance antagonistic to the binding of cell strain Jurkat (ATCC TIB-152) of human T cells, known to express integrin α4β1, to VCAM-1 was determined.
(§1) 100 μl/well of a solution (500 ng/ml) of recombinant human VCAM-1 (R & D systems) solution diluted with buffer A (0.1 M NaHCO3, pH 9.6) was added to a micro titer plate having 96 wells (Nunc Maxisorp). After the incubation at 4° C. overnight, unbound VCAM-1 was removed by washing once with PBS. After completion of the washing, a buffer (buffer B) obtained by diluting Block Ace® (Dainippon Pharmaceutical Co., Ltd.) with PBS to 1/4 concentration was added in an amount of 150 μl/well. After the incubation at room temperature for 1 hour, buffer B was removed and the plate was washed with PBS once.
Jurkat cells were washed with Dulbecco modified Eagle medium (SIGMA, hereinafter referred to as “DMEM”) twice and then incubated in DMEM containing 10 μg/ml of Calcein-AM (Wako Pure Chemical Industries, Ltd.) at 37° C. in dark place for 30 minutes to label with fluorescence. The cells were again suspended in a binding buffer (20 mM HEPES, DMEM containing 0.1% BSA).
(§2) 50 μl of a test substance of various concentrations obtained by the dilution with the binding buffer was added to the plate. Immediately thereafter, 50 μl (final volume: 100 μl/well) of the fluorescent Jurkat cells (4×10^6 cells/ml) were added thereto, and they were incubated at room temperature for 30 minutes. After the shaking on a plate shaker (IKA MTS-4) at 800 rpm for 30 seconds, the solution was immediately removed to remove the unbound cells. The fluorescence quantity of the bound cells remaining in the wells was determined with a fluorescent plate reader (Wallac 1420 ARVO multi-label counter) (filter excitation wave length: 485 nm, emission wave length: 535 nm). The fluorescent strength thus obtained is proportional to the number of Jurkat cells bound to VCAM-1 and remaining on the plate. The binding rate of each test material in various concentrations was determined while the fluorescent strength of the test material-free well was determined to be 100%. The concentration IC50 for the 50% binding inhibition was calculated.
(§3) The activities were classified into group A wherein IC50 was 0.02 μmol/l or below, group B wherein IC50 was higher than 0.02 μmol/l and not above 0.1 μmol/l, group C wherein IC50 was higher than 0.1 μmol/l and not above 2 μmol/l, and group D wherein IC50 was higher than 2 μmol/l and not above 10 μmol/l.

The next test has as its target T2, integrin α4β7 (Homo sapiens, UniProt P13612+P26010).
T2 construct: lymphoma cell strain RPMI-8866 of human B cells, known to express integrin α4β7; endogenous in cells; host or cells: RPMI-8866 (human B lymphoma cell line)
T2 sequence (P13612 34-1032): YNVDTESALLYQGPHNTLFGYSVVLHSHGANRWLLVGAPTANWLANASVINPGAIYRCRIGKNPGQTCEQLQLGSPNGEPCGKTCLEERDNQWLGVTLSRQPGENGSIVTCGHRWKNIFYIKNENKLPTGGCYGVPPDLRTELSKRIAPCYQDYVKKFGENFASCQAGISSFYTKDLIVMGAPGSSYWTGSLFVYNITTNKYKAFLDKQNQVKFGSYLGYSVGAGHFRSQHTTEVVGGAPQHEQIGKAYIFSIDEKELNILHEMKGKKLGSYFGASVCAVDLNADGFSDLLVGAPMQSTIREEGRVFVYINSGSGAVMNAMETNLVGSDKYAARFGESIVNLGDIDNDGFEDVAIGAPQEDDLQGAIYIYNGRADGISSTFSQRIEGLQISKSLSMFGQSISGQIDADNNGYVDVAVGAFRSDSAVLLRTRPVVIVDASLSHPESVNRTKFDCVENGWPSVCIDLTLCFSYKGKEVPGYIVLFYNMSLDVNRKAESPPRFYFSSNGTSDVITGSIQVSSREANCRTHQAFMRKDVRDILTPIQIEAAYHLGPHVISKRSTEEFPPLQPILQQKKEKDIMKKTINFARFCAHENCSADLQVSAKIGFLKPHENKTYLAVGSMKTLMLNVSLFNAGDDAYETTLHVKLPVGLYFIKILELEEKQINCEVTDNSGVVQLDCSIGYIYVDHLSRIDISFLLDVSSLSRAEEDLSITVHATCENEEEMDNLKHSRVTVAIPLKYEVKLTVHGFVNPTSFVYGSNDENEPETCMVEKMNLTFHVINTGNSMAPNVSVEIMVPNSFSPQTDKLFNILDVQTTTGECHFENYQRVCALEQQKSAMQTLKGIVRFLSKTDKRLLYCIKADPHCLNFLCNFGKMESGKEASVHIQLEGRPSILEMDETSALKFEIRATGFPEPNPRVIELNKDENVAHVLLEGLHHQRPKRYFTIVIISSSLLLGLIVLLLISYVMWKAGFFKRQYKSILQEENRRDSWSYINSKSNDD
T2 sequence (P26010 20-798): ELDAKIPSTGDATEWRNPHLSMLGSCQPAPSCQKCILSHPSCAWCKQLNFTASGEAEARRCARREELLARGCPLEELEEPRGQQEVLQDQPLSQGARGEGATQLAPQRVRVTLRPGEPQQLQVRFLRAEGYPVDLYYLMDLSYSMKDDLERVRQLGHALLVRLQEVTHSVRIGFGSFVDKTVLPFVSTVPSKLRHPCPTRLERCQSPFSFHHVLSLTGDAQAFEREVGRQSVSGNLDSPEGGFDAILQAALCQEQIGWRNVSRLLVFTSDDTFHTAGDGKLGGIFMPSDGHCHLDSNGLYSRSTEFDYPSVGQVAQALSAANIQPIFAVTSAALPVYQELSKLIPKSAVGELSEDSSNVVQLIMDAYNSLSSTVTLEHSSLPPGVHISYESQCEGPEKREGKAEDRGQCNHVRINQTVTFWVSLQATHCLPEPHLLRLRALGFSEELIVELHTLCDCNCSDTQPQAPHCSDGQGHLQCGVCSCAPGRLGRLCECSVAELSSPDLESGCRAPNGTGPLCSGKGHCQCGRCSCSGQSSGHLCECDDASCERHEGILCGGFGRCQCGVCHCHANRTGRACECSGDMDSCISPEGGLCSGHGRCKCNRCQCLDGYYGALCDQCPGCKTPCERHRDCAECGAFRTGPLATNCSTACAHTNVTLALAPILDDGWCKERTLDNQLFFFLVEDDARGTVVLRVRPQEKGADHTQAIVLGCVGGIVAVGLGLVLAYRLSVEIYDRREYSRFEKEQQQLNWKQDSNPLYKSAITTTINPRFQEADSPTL
The experiment in a line: VCAM antagonistic activity (VCAM-1/α4β7 binding assay). Format: cell-based. The note with it: RPMI-8866 cells binding to VCAM-1; read-out: VCAM antagonistic activity (IC50) α4β7. As for the experimental part:
(Test Example) VCAM Antagonistic Activity (VCAM-1/α4β7 Binding Assay):
The capacity of a test substance antagonistic to the binding of lymphoma cell strain RPMI-8866 of human B cells, known to express integrin α4β7, to VCAM-1 was determined.
as §1
RPMI-8866 cells were incubated in Dulbecco modified Eagle medium containing 10 μg/ml of Calcein-AM (Wako Pure Chemical Industries, Ltd.) (SIGMA, hereinafter referred to as “DMEM”) at 37° C. for 30 minutes to label with fluorescence. The cells were again suspended in a binding buffer (20 mM HEPES, DMEM containing 0.1% BSA) containing 4 mM of MnCl2.
as §2, with “RPMI-8866” for “Jurkat”
as §3

T1 sequence (P05556 21-798, one chain of several): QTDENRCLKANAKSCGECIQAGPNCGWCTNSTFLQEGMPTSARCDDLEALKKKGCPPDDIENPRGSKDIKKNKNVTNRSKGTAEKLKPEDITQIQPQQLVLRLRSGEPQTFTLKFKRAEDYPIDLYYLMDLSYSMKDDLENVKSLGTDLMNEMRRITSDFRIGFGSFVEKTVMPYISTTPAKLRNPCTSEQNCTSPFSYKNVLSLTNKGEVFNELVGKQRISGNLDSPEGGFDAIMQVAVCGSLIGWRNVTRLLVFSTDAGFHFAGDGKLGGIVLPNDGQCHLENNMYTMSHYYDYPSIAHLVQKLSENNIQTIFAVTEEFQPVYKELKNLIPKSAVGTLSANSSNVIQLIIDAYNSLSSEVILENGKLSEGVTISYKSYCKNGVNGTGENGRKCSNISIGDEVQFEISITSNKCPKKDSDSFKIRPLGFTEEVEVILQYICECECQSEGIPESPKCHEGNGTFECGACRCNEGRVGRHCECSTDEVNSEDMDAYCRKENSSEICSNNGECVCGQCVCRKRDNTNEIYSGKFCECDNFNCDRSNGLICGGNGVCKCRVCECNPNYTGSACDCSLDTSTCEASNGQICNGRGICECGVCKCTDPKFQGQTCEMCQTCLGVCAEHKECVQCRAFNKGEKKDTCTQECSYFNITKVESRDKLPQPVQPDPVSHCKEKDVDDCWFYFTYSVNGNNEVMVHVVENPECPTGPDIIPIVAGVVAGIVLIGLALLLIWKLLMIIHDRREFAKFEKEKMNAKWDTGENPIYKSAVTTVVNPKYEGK

As usually defined, the IC50 is the concentration at which inhibition is half-maximal. For the compound `CCC(CC)(C(=O)N[C@@H](Cc1ccc(OCc2c(Cl)cccc2Cl)cc1)C(=O)O)C(=O)N1CCCC1` [Example 32], the IC50 fell in the range of 100 to 2000 nM at integrin α4β1 and 20 to 100 nM on integrin α4β7.

`CC(C)(C(=O)N[C@@H](Cc1ccc(OCc2c(Cl)cccc2Cl)cc1)C(=O)O)C(=O)N1CCCC1` [Example 33]: the IC50 on integrin α4β1 fell in the range of 100 to 2000 nM; on integrin α4β7, 20 to 100 nM.

Take `CCC(CC)(C(=O)N[C@@H](Cc1ccc(OCc2c(Cl)cccc2Cl)cc1)C(=O)O)C(=O)N1CCOCC1` [Example 34]: the IC50 at integrin α4β1 is 100 to 2000 nM; at integrin α4β7, 20 to 100 nM.

With `CCC(CC)(C(=O)N[C@@H](Cc1ccc(OCc2c(Cl)cccc2Cl)cc1)C(=O)O)C(=O)N1CC[C@@H](O)C1` [Example 35], the IC50 is 20 to 100 nM at integrin α4β1 and < 20 nM at integrin α4β7.

Consider `CCC(CC)(C(=O)N[C@@H](Cc1ccc(OCc2c(Cl)cccc2Cl)cc1)C(=O)O)C(=O)N1CCSCC1` [Example 36], for which the IC50 on integrin α4β1 was in the range of 100 to 2000 nM; on integrin α4β7, 20 to 100 nM.

For the compound `CCC(CC)(C(=O)N[C@@H](Cc1ccc(OCc2c(Cl)cccc2Cl)cc1)C(=O)O)C(=O)N1CCC(C(N)=O)CC1` [Example 39], the concentration for half-maximal inhibition (IC50) is 100 to 2000 nM at integrin α4β1 and 20 to 100 nM at integrin α4β7.

For the compound `CCC(CC)(C(=O)N[C@@H](Cc1ccc(OCc2c(Cl)cccc2Cl)cc1)C(=O)O)C(=O)N(C)CCN(C)C` [Example 40], the IC50 at integrin α4β1 was in the range of 100 to 2000 nM; at integrin α4β7 it was 20 to 100 nM.

As to `CCN(C)C(=O)C(CC)(CC)C(=O)N[C@@H](Cc1ccc(OCc2c(Cl)cccc2Cl)cc1)C(=O)O` [Example 41], the IC50 is 100 to 2000 nM at integrin α4β1 and 20 to 100 nM at integrin α4β7.

For `CCC(CC)(C(=O)N[C@@H](Cc1ccc(OCc2c(Cl)cccc2Cl)cc1)C(=O)O)C(=O)N1CCCNCC1` [Example 42], the IC50 on integrin α4β1 lay within 100 to 2000 nM; on integrin α4β7 it was 20 to 100 nM.

In the case of `CCC(CC)(C(=O)N[C@@H](Cc1ccc(OCc2c(Cl)cccc2Cl)cc1)C(=O)O)C(=O)N1CC[C@@H](N(C)C)C1` [Example 44], the half-inhibitory concentration (IC50) was 100 to 2000 nM at integrin α4β1 and < 20 nM at integrin α4β7.

Regarding `CCC(CC)(C(=O)N[C@@H](Cc1ccc(OCc2c(Cl)cccc2Cl)cc1)C(=O)O)C(=O)N1CCN(C=O)CC1` [Example 45], the IC50 was in the range of 100 to 2000 nM at integrin α4β1 and 20 to 100 nM at integrin α4β7.

As to `CCC(CC)(C(=O)N[C@@H](Cc1ccc(OCc2c(Cl)cccc2Cl)cc1)C(=O)O)C(=O)N1C[C@H](O)C[C@H]1C(=O)OC` [Example 46], the IC50 is 100 to 2000 nM on integrin α4β1 and < 20 nM on integrin α4β7.

`CCC(CC)(C(=O)N[C@@H](Cc1ccc(OCc2c(Cl)cccc2Cl)cc1)C(=O)O)C(=O)N1CCC(O)CC1` [Example 49]: the IC50 was 100 to 2000 nM on integrin α4β1 and 20 to 100 nM at integrin α4β7.

In the case of `CCC(CC)(C(=O)N[C@@H](Cc1ccc(OCc2c(Cl)cccc2Cl)cc1)C(=O)O)C(=O)N1CCC[C@H]1COC` [Example 50], the results for the IC50 at integrin α4β1 and on integrin α4β7 were 100 to 2000 nM and 20 to 100 nM, respectively.

Regarding `CCC(CC)(C(=O)N[C@@H](Cc1ccc(OCc2c(Cl)cccc2Cl)cc1)C(=O)O)C(=O)N1CCC[C@H]1CN1CCCC1` [Example 53], the IC50 on integrin α4β1 was 100 to 2000 nM; at integrin α4β7, < 20 nM.

As for `CCC(CC)(C(=O)N[C@@H](Cc1ccc(OCc2c(Cl)cccc2Cl)cc1)C(=O)O)C(=O)N1CC[C@@H](NC(C)=O)C1` [Example 54], the IC50 was 20 to 100 nM at integrin α4β1 and < 20 nM at integrin α4β7.

Consider `CCC(CC)(C(=O)N[C@@H](Cc1ccc(OCc2c(Cl)cccc2Cl)cc1)C(=O)O)C(=O)N1CC[C@H](NC(C)=O)C1` [Example 55], for which the figures for the IC50 at integrin α4β1 and on integrin α4β7 were 20 to 100 nM and < 20 nM, respectively.

In the case of `CCC(CC)(C(=O)NC(Cc1ccc(OCc2c(Cl)cccc2Cl)cc1)C(=O)O)C(=O)N1CCCC1C(=O)OC` (stereo not drawn) [Example 56], the IC50 is 100 to 2000 nM at integrin α4β1 and < 20 nM on integrin α4β7.

As to `O=C(O)[C@H](Cc1ccc(OCc2c(Cl)cccc2Cl)cc1)NC(=O)C1(C(=O)N2CCCC2)CCOCC1` [Example 58], the IC50 on integrin α4β1 and at integrin α4β7 was 100 to 2000 nM throughout.

Take `O=C1CCN(C(=O)C2(C(=O)N[C@@H](Cc3ccc(OCc4c(Cl)cccc4Cl)cc3)C(=O)O)CC2)C1` [Example 59]: the IC50 lay in the range of 100 to 2000 nM on integrin α4β1 and 20 to 100 nM at integrin α4β7.

Take `CCC(CC)(C(=O)N[C@@H](Cc1ccc(OCc2c(Cl)cccc2Cl)cc1)C(=O)O)C(=O)N1CCCN(C=O)CC1` [Example 61]: the values for the IC50 on integrin α4β1 and on integrin α4β7 were 100 to 2000 nM and 20 to 100 nM, respectively.
